Literature values, collected in patent publication US5086054A, “Novel arylcycloalkanepolyalkylamines” (SRI International, priority 1990, dated 1992).
“Also recorded” adds a separate entry of the source.

Experiments:
[1] = system: climbing behavior in mice; details: cited from earlier work
σ receptor = details: rat spinal cord and brain membranes; cited from earlier work
[2] = system: conditioned avoidance responses in rat; details: cited from earlier work
[3] = clinical trials; cited from earlier work
[4] = system: postsynaptic dopamine receptors; details: mesolimbic area; cited from earlier work
σ receptors = details: literature; cited from earlier work

Compound: C[C@@H]1CN(CCCn2c3ccccc3c3ccccc32)C[C@H](C)N1 [rimcazole, cis-9-[3-(3,5-dimethyl-1-piperazinyl)propyl]carbozole]
- cataleptic state ([1]; associated with EPS): without producing the cataleptic state
- climbing behavior [1]: antagonize climbing behavior in mice
- inhibition of specific binding of NAN (σ receptor): competitively inhibit specific binding of the σ receptor ligand NAN
- conditioned avoidance responses [2]: did not influence conditioned avoidance responses in rat
- clinical antipsychotic effects [3]: display clinical antipsychotic effects
- action at postsynaptic dopamine receptors [4]: did not exert its action at the level of postsynaptic dopamine receptors in the mesolimbic area
- affinity / binding at σ receptors (in words) (σ receptors): potent and selective σ receptor ligands; also recorded: high-affinity, σ-selective
